One series has as its target T1, β2 -receptors (Cavia porcellus, UniProt Q8K4Z4).
T1 construct: tested on anesthetized guinea pigs; from tissue; host or cells: living anesthetized guinea pig, airways (Konzett-Rossler)
Briefly: β2-mimetic activity: antagonism to acetylcholine bronchospasm in anesthetized guinea pigs (Konzett-Rossler). In kind it is in vivo. The note with it: for ED50: guinea pig, iv, bronchospasm by 20 γ/kg acetylcholine i.v., test compound i.v., graphic extrapolation (Table I); for Duration of activity (β2 -mimetic activity): i.v. (Table I). On the procedure:
(§1) The compounds of this invention were tested for toxicity and with regard to their action on the β-receptors in warm-blooded animals, such as cats and guinea pigs, by the methods described below, and the following test results were obtained for representative species of the genus, where
The β2 -mimetic activity was tested on anesthetized guinea pigs as antagonism to bronchospasm provoked by intravenous administration of 20 γ of acetylcholine per kg body weight (according to the method of Konzett-Rossler) by intravenous administration of the test compound. From the average percentage decrease of the bronchospasm produced by various doses of the test compound, a median effective dose (ED50) was determined by graphic extrapolation (see Table I).

Series [1] is described as follows: acute toxicity in mice (LD50, Litchfield and Wilcoxon). Conditions: mouse, in vivo, iv, groups of 10, i.v., deaths within 14 days (Table II), read-out: LD50. On the procedure: as §1
The acute toxicity of the compounds was determined on groups of 10 mice.

In another series the target is T2, β1 -receptors (Felis catus, UniProt Q9TST6).
T2 construct: tested on anesthetized cats; from tissue; host or cells: living anesthetized cat, heart (heart rate)
T2 sequence (Q9TST6 whole entry): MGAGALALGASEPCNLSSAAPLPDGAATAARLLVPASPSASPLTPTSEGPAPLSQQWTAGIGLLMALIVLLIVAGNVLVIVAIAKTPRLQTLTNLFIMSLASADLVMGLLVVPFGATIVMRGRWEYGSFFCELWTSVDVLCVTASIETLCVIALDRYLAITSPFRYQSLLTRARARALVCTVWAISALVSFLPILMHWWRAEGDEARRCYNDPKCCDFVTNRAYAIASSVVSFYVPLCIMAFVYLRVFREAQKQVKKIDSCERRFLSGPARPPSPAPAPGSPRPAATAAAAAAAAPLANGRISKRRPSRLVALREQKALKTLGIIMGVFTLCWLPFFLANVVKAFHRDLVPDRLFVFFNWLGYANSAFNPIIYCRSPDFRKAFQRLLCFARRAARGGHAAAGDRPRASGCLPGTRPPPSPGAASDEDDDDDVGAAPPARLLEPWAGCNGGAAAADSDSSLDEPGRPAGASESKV
Briefly: β1-blocking activity: antagonism to tachycardia provoked by N-isopropyl-noradrenalin sulfate in anesthetized cats. In kind it is in vivo. Conditions: cat, iv, tachycardia by 1.0 γ/kg i.v. N-isopropyl-noradrenalin sulfate, graphic extrapolation (Table II), read-out: Blocking action on the β1 -receptors ED50. On the procedure: as §1
The β1 -blocking activity was tested on anesthetized cats as antagonism to tachycardia provoked by a standard dose of 1.0 γ/kg i.v. of N-isopropyl-noradrenalin sulfate. From the average percentage reduction in heart rate acceleration caused by N-isopropyl-noradrenalin sulfate, obtained by various doses of the test compound in question, a median effective dose (ED50) was determined by graphic extrapolation (see Tables II and III).

By ED50 is commonly meant the dose at which the effect has come halfway, by size or by number of responders. One may read the LD50 as the dose at which mortality reaches 50%.

Where a name gives a salt, the structure may show the parent alone. A value given as a limit tells only on which side of the number the result lay.

T1 sequence (Q8K4Z4 whole entry): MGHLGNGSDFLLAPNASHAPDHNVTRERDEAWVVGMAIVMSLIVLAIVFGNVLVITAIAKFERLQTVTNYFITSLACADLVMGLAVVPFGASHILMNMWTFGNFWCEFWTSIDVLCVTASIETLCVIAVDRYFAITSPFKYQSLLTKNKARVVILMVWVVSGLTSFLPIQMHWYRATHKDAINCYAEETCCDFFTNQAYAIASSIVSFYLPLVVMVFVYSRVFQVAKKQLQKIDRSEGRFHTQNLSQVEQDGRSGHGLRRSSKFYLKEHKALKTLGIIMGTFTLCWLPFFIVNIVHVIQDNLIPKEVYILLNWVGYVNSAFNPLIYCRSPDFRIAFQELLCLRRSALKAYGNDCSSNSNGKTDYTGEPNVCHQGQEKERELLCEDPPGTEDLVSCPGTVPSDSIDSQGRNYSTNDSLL

For `CC(C)(C)NCC(O)c1cc(F)c(N)c(Br)c1.Cl` (centres unmarked) [A, 1-(4'-amino-3'-bromo-5'-fluoro-phenyl)-2-tert.butylamino-ethanol hydrochloride], at β2 -receptors, the ED50 was 0.0083 mg/kg and the “Duration of activity (β2 -mimetic activity)” value (shortened to “Duration of activity”) was > 150 min. Also, the LD50 at 336 h in series [1] is 34.5 mg/kg. Besides, the ED50 on β1 -receptors was 0.0185 mg/kg.

Consider `CC(C)(C)N1COC(c2cc(F)c(N)c(Br)c2)C1.Cl.Cl` (centres unmarked) [B, 5-(4'-amino-3'-bromo-5'-fluoro-phenyl)-3-tert.butyloxazolidine dihydrochloride], for which, on β2 -receptors, the ED50 is 0.0067 mg/kg and the “Duration of activity” value is > 110 min. Further, the LD50 at 336 h in series [1] was 27.2 mg/kg.

Turning to `Cl.Nc1c(F)cc(C(O)CNC2CC2)cc1Cl` (centres unmarked) [C, 1-(4'-amino-3'-chloro-5'-fluoro-phenyl)-2-cyclopropylamino-ethanol hydrochloride], on β2 -receptors, the 50% effective dose (ED50) was 0.024 mg/kg and the “Duration of activity” value is > 50 min. Further, the 50% lethal dose (LD50) at 336 h in series [1] is 57 mg/kg. Further, the ED50 at β1 -receptors was 0.014 mg/kg.

For `CC(C)(C)NCC(O)c1cc(F)c(N)c(Cl)c1.Cl` (centres unmarked) [D, 1-(4'-amino-3'-chloro-5'-fluoro-phenyl)-2-tert.butylamino-ethanol hydrochloride], on β2 -receptors, the ED50 is 0.019 mg/kg and the “Duration of activity” value is > 120 min. In series [1], the 50% lethal dose (LD50) at 336 h was determined as 35.1 mg/kg. Also, the ED50 on β1 -receptors was 0.008 mg/kg.

For the compound `CC(C)(C)NCC(O)c1ccc(N)c(F)c1.Cl` (centres unmarked) [E, 1-(4'-amino-3'-fluoro-phenyl)-2-tert.butylamino-ethanol hydrochloride], on β2 -receptors, the ED50 is 0.018 mg/kg and the “Duration of activity” value was > 80 min. In series [1], the 50% lethal dose (LD50) at 336 h was determined as 69.2 mg/kg. Besides, at β1 -receptors, the ED50 is 0.0135 mg/kg.

Turning to `Br.CCC(C)(C)NCC(O)c1ccc(N)c(C(F)(F)F)c1` (centres unmarked) [F, 1-(4'-amino-3'-trifluoromethyl-phenyl)-2-tert.pentylamino-ethanol hydrobromide], the ED50 at β1 -receptors was 0.035 mg/kg.

As for `CC(C)(C)NCC(O)c1cc(Cl)c(N)c(C(F)(F)F)c1` (centres unmarked) [G, 1-(4'-amino-3'-chloro-5'-trifluoromethyl-phenyl)-2-tert.butylamino-ethanolhydrochloride], at β2 -receptors, the ED50 was 0.0195 mg/kg and the “Duration of activity” value was > 130 min. For the same compound, the LD50 at 336 h in series [1] turned out to be 36.5 mg/kg. For the same compound, on β1 -receptors, the ED50 was 0.0115 mg/kg.

In the case of `Nc1c(Cl)cc(C(O)CNC2CCC2)cc1C(F)(F)F` (centres unmarked) [H, 1-(4'-amino-3'-chloro-5'-trifluoromethyl-phenyl)-2-cyclobutylamino-ethanolhydrochloride], at β2 -receptors, the ED50 was 0.0068 mg/kg and the “Duration of activity” value was > 125 min. In addition, in series [1], the LD50 at 336 h amounted to 36.3 mg/kg.

On to `CC(C)(C)NCC(O)c1cc(Cl)c(N)c(C#N)c1` (centres unmarked) [I, 1-(4'-amino-3'-chloro-5'-cyano-phenyl)-2-tert.butylamino-ethanol], for which the results for the median effective dose (ED50) on β2 -receptors and on β1 -receptors were 0.0002 mg/kg and 0.00074 mg/kg, respectively. For the same compound, on β2 -receptors, the “Duration of activity” value is > 95 min. The LD50 at 336 h in series [1] amounted to 60 mg/kg.

Turning to `CC(C)(C)NCC(O)c1cc(Br)c(N)c(C#N)c1.Cl` (centres unmarked) [J, 1-(4'-amino-3'-bromo-5'-cyano-phenyl)-2-tert.butylamino-ethanol hydrochloride], on β2 -receptors, the median effective dose (ED50) was 0.0048 mg/kg and the “Duration of activity” value is > 40 min. Also, the LD50 at 336 h in series [1] was 67 mg/kg.

With `Cl.Nc1c(F)cc(C(O)CNC2CCC2)cc1Br` (centres unmarked) [K, 1-(4'-amino-3'-bromo-5'-fluoro-phenyl)-2-cyclobutylamino-ethanol hydrochloride], the median effective dose (ED50) on β2 -receptors is 0.058 mg/kg; on β1 -receptors, 0.0015 mg/kg. The “Duration of activity” value on β2 -receptors is > 50 min. The 50% lethal dose (LD50) at 336 h in series [1] came to 26.4 mg/kg.

With `Cl.Nc1c(F)cc(C(O)CNC2CC2)cc1I` (centres unmarked) [L, 1-(4'-amino-3'-fluoro-5'-iodo-phenyl)-2-cyclopropylamino-ethanol hydrochloride], the LD50 at 336 h in series [1] stood at 45.2 mg/kg. Besides, the ED50 on β1 -receptors is 0.0013 mg/kg.

On to `CC(C)NCC(O)c1cc(F)c(N)c(C#N)c1.Cl` (centres unmarked) [M, 1-(4'-amino-3'-fluoro-5'-cyano-phenyl)-2-isopropylamino-ethanol hydrochloride], for which, on β2 -receptors, the “Duration of activity” value is > 40 min. Also, the LD50 at 336 h in series [1] worked out at 66.4 mg/kg. The ED50 on β1 -receptors was 0.00027 mg/kg.

Take `CC(C)(C)NCC(O)c1cc(F)c(N)c(C#N)c1.Cl` (centres unmarked) [N, 1-(4'-amino-3'-fluoro-5'-cyano-phenyl)-2-tert.butylamino-ethanol hydrochloride]: on β2 -receptors, the 50% effective dose (ED50) is 0.00032 mg/kg and the “Duration of activity” value is > 40 min. Further, the LD50 at 336 h in series [1] turned out to be 58.4 mg/kg.

As for `Br.N#Cc1cc(C(O)CNC2CCC2)ccc1N` (centres unmarked) [O, 1-(4'-amino-3'-cyano-phenyl)-2-cyclobutylamino-ethanol hydrobromide], at β2 -receptors, the ED50 is 0.0069 mg/kg and the “Duration of activity” value worked out at 40 min. The LD50 at 336 h in series [1] was 61.8 mg/kg.

On to `CCC(C)(C)NCC(O)c1ccc(N)c(C#N)c1` (centres unmarked) [P, 1-(4'-amino-3'-cyano-phenyl)-2-tert.pentylamino-ethanol], for which, at β2 -receptors, the ED50 was 0.0036 mg/kg and the “Duration of activity” value stood at 65 min. Moreover, in series [1], the 50% lethal dose (LD50) at 336 h came out at 62 mg/kg.

Regarding `CCCNCC(O)c1cc(Cl)c(N)c(C#N)c1.Cl` (centres unmarked) [Q, 1-(4'-amino-3'-chloro-5'-cyano-phenyl)-2-propylamino-ethanol hydrochloride], at β2 -receptors, the ED50 was 0.027 mg/kg and the “Duration of activity” value was determined as 50 min. The LD50 at 336 h in series [1] came out at 53.4 mg/kg. On β1 -receptors, the ED50 was 0.00076 mg/kg.

In the case of `CCC(C)NCC(O)c1cc(Cl)c(N)c(C#N)c1.Cl` (centres unmarked) [R, 1-(4'-amino-3'-chloro-5'-cyano-phenyl)-2-sec.butylamino-ethanol hydrochloride], the ED50 on β2 -receptors is 0.0057 mg/kg; at β1 -receptors it was 0.00032 mg/kg. In addition, the “Duration of activity” value on β2 -receptors is > 80 min. Further, the LD50 at 336 h in series [1] is 40.4 mg/kg.

With `CC(C)(CO)NCC(O)c1cc(Cl)c(N)c(C#N)c1` (centres unmarked) [S, 1-(4'-amino-3'-chloro-5'-cyano-phenyl)-2-(hydroxy-tert.butylamino)-ethanolhydrochloride], at β2 -receptors, the median effective dose (ED50) is 0.01 mg/kg and the “Duration of activity” value is > 65 min. Besides, the LD50 at 336 h in series [1] was determined as 81.8 mg/kg. In addition, at β1 -receptors, the ED50 was 0.00076 mg/kg.

As to `CCC(C)(C)NCC(O)c1cc(Cl)c(N)c(C#N)c1.Cl` (centres unmarked) [T, 1-(4'-amino-3'-chloro-5'-cyano-phenyl)-2-tert.pentylamino-ethanol hydrochloride], at β2 -receptors, the ED50 is 0.0019 mg/kg and the “Duration of activity” value was > 40 min. Further, the median lethal dose (LD50) at 336 h in series [1] was determined as 33.7 mg/kg. For the same compound, at β1 -receptors, the ED50 is 0.00045 mg/kg.

Take `Cl.N#Cc1cc(C(O)CNC2CCCC2)cc(Cl)c1N` (centres unmarked) [U, 1-(4'-amino-3'-chloro-5'-cyano-phenyl)-2-cyclopentylamino-ethanol hydrochloride]: at β2 -receptors, the ED50 is 0.0098 mg/kg and the “Duration of activity” value is > 50 min. The LD50 at 336 h in series [1] turned out to be 39.1 mg/kg. Besides, the ED50 on β1 -receptors was 0.0007 mg/kg.

Regarding `CC(Cc1ccc2c(c1)OCO2)NCC(O)c1cc(Cl)c(N)c(C#N)c1` (centres unmarked) [V, 1-(4'-amino-3'-chloro-5'-cyano-phenyl)-2-[1"-(3,4-methylenedioxy-phenyl)-2"-propylamino]-ethanol hydrochloride], at β2 -receptors, the ED50 was 0.0027 mg/kg and the “Duration of activity” value is > 65 min. In addition, the median lethal dose (LD50) at 336 h in series [1] is 13.5 mg/kg. Besides, the ED50 on β1 -receptors was 0.0014 mg/kg.

For the compound `Cl.N#Cc1cc(C(O)CNC2CCC2)cc(Br)c1N` (centres unmarked) [W, 1-(4'-amino-3'-bromo-5'-cyano-phenyl)-2-cyclobutylamino-ethanol hydrochloride], at β2 -receptors, the ED50 is 0.0205 mg/kg and the “Duration of activity” value was > 50 min. In addition, the LD50 at 336 h in series [1] stood at 38.5 mg/kg.

`CC(C)(C)NCC(O)c1cc(C#N)c(N)c(C#N)c1.Cl` (centres unmarked) [X, 1-(4'-amino-3',5'-dicyano-phenyl)-2-tert.butylamino-ethanol hydrochloride]: the 50% effective dose (ED50) was 0.0113 mg/kg on β2 -receptors and 0.00092 mg/kg at β1 -receptors. On β2 -receptors, the “Duration of activity” value was > 65 min. In series [1], the 50% lethal dose (LD50) at 336 h was found to be 166 mg/kg.

Turning to `CC(C)(C)NCC(O)c1cc(Br)c(N)c([N+](=O)[O-])c1` (centres unmarked) [Y, 1-(4'-amino-3'-bromo-5'-nitro-phenyl)-2-tert.butylamino-ethanol], the LD50 at 336 h in series [1] came out at 35.8 mg/kg. Moreover, the ED50 on β1 -receptors is 0.0028 mg/kg.

Turning to `CC(C)(C)NCC(O)c1cc(Cl)c(N)c([N+](=O)[O-])c1` (centres unmarked) [Z, 1-(4'-amino-3'-chloro-5'-nitro-phenyl)-2-tert.butylamino-ethanol], the median effective dose (ED50) is 0.0315 mg/kg at β2 -receptors and 0.0045 mg/kg on β1 -receptors. Besides, the “Duration of activity” value at β2 -receptors is > 80 min. In addition, the 50% lethal dose (LD50) at 336 h in series [1] was found to be 42.4 mg/kg.

The record behind these values is patent US4119710A, “Bronchospasmolytic 1-(p-amino-phenyl)-2-amino-ethanols-(1) and salts” (Boehringer Ingelheim GmbH, priority 1972, dated 1978).
